How the values were obtained:
[1] = test system: SMN2 minigene (full length SMN2 minigene mRNA containing SMN2 exon 7); test: SMN2 minigene mRNA splicing RT-qPCR assay in cultured cells; assay type: cell-based, human; settings: Homo sapiens, HEK293-H; HEK293H cells stably transfected with SMN2-A minigene; 24 hours; 7-point concentration curve; 1.5-fold relative to vehicle-treated cells; read-out: EC1.5x for production of full length SMN2 mRNA
In short: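 Lysates → one-step RT-qPCR, minigene-specific primers (0.4 μM final) + GAPDH multiplex, 40 cycles. FL/GAPDH vs DMSO; EC1.5x, star-binned.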

Smn protein = Smn protein assay in cultured cells (SMN HTRF); assay type: cell-based, human; settings: 48 hours; for maximum fold (Fold) increase of Smn protein: SMA patient fibroblast cells, 7-point concentration data, fold increase relative to vehicle control (SMN HTRF); for EC1.5x (concentration giving 1.5-fold Smn protein increase): SMA Type 1 patient fibroblast cells (GM03813), 7-point concentration curve, SMN HTRF, concentration producing 1.5 times Smn protein vs DMSO vehicle control, read-out: EC1.5x for Smn protein expression
In short: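 Smn in SMA fibroblast lysates, measured by anti-SMN HTRF after 48 h compound exposure; EC1.5x from fold change over vehicle.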

| melting point [°C] | Structure (SMILES) | EC (1.5-fold) [1] [µM] | maximum fold (Fold) increase of Smn protein (Smn protein) | EC1.5x (concentration giving 1.5-fold Smn protein increase) (Smn protein) [nM] |
| --- | --- | --- | --- | --- |
| 174 to 178 | Cc1cn2cc(-c3ccc4cc(N5CCNCC5)c(=O)oc4c3)ccc2n1 [Cpd 818, 7-(2-methylimidazo[1,2-a]pyridin-6-yl)-3-(piperazin-1-yl)-2H-chromen-2-one] | 1 to 3 | * (maximum fold increase of ≤1.2) |  |
| 230 to 234 | Cc1cn2cc(-c3cc4ccc(N5CC[C@H](N(C)C)C5)cc4oc3=O)ccc2n1 [Compound 717, 7-[(3S)-3-(dimethylamino)pyrrolidin-1-yl]-3-(2-methylimidazo[1,2-a]pyridin-6-yl)-2H-chromen-2-one] | 0.3 to 1 | *** (fold increase between >1.35 and ≤1.5) |  |
| 109 to 111 | COc1c(F)cc(F)cc1-c1cc2ccc(N3CCNCC3)cc2oc1=O [Compound 538, 3-(3,5-difluoro-2-methoxyphenyl)-7-(piperazin-1-yl)-2H-chromen-2-one] | 3 to 30 | * (maximum fold increase of ≤1.2) |  |
| 179 to 181 | COc1ccncc1-c1cc2ccc(N3CCNCC3)cc2oc1=O [Compound 234, 3-(4-methoxypyridin-3-yl)-7-(piperazin-1-yl)-2H-chromen-2-one] | 3 to 30 | * (maximum fold increase of ≤1.2) |  |
| 215 to 217 | C[C@H]1CN(c2ccc3cc(-c4cn5cccc(Cl)c5n4)c(=O)oc3c2)CCN1 [Compound 184, 3-(8-chloroimidazo[1,2-a]pyridin-2-yl)-7-[(3S)-3-methylpiperazin-1-yl]-2H-chromen-2-one] | 0.3 to 1 | *** (fold increase between >1.35 and ≤1.5) |  |
| 225 to 227 | CN1CCCN(c2ccc3cc(-c4cn5cnccc5n4)c(=O)oc3c2)CC1 [Compound 460, 3-(imidazo[1,2-c]pyrimidin-2-yl)-7-(4-methyl-1,4-diazepan-1-yl)-2H-chromen-2-one] | 0.1 to 0.3 | *** (fold increase between >1.35 and ≤1.5) | 3000 to 10000 |
| 231 to 237 | CCN1C[C@@H]2CN(c3ccc4cc(-c5cn6cc(C)nc(C)c6n5)c(=O)oc4c3)C[C@@H]2C1 [Compound 747, 3-(6,8-dimethylimidazo[1,2-a]pyrazin-2-yl)-7-[(3aR,6aS)-5-ethylhexahydropyrrolo[3,4-c]pyrrol-2(1H)-yl]-2H-chromen-2-one] | < 0.1 | ***** (fold increase >1.65) | < 300 |
| 211 to 213 | COc1ccc(-c2cc3ccc(N4CCNCC4)cc3oc2=O)cc1 [Compound 447, 3-(4-methoxyphenyl)-7-(piperazin-1-yl)-2H-chromen-2-one] | 1 to 3 | * (maximum fold increase of ≤1.2) |  |
| 224 to 228 | CN1CCCN(c2cc(F)c3cc(-c4nc5c(F)cccc5o4)c(=O)oc3c2)CC1 [Compound 369, 5-fluoro-3-(4-fluoro-1,3-benzoxazol-2-yl)-7-(4-methyl-1,4-diazepan-1-yl)-2H-chromen-2-one] | 0.1 to 0.3 | ** (fold increase between >1.2 and ≤1.35) |  |
| 205 to 209 | Cc1nn2cc(-c3cc4ccc(N5CCN[C@@H](C)C5)cc4oc3=O)nc2s1 [Compound 482, 3-(2-methylimidazo[2,1-b][1,3,4]thiadiazol-6-yl)-7-[(3S)-3-methylpiperazin-1-yl]-2H-chromen-2-one] | < 0.1 | **** (fold increase between >1.5 and ≤1.65) | < 300 |
| 241 to 248 | Cc1cn2cc(-c3cc4ccc(N5CC[C@H]6CN(C)C[C@H]65)cc4oc3=O)nc2c(C)n1 [Compound 689, 3-(6,8-dimethylimidazo[1,2-a]pyrazin-2-yl)-7-[(3aS,6aS)-5-methylhexahydropyrrolo[3,4-b]pyrrol-1(2H)-yl]-2H-chromen-2-one] | 0.3 to 1 | *** (fold increase between >1.35 and ≤1.5) |  |
| 224 to 227 | Cc1cn2cc(-c3cc4ccc(N5CCC(N(C)C)CC5)cc4oc3=O)cc2cn1 [Compound 716, 7-[4-(dimethylamino)piperidin-1-yl]-3-(3-methylpyrrolo[1,2-a]pyrazin-7-yl)-2H-chromen-2-one] | < 0.1 | **** (fold increase between >1.5 and ≤1.65) | 1000 to 3000 |
| 200 to 205 | Cc1cn2cc(-c3cc4ccc(C5CCN(C6CCC6)CC5)cc4oc3=O)nc2c(C)n1 [Compound 821, 7-(1-cyclobutylpiperidin-4-yl)-3-(6,8-dimethylimidazo[1,2-a]pyrazin-2-yl)-2H-chromen-2-one] | < 0.1 | ***** (fold increase >1.65) | < 300 |
| 280 to 285 | Cl.O=c1oc2cc(N3CCNCC3)ccc2cc1-c1nc2c(I)cccc2o1 [Compound 67, 3-(4-iodo-1,3-benzoxazol-2-yl)-7-(piperazin-1-yl)-2H-chromen-2-one hydrochloride] | 0.3 to 1 | * (maximum fold increase of ≤1.2) |  |
| 175 to 177 | CCN(CC)CCOc1ccc2cc(-c3cn4cc(C)nc(C)c4n3)c(=O)oc2c1 [Compound 895, 7-[2-(diethylamino)ethoxy]-3-(6,8-dimethylimidazo[1,2-a]pyrazin-2-yl)-2H-chromen-2-one] | < 0.1 | ***** (fold increase >1.65) | < 300 |
| 145 to 153 | Cc1cn2cc(-c3cc4ccc(CCCN5CCNCC5)cc4oc3=O)nc2c(C)n1 [Compound 859, 3-(6,8-dimethylimidazo[1,2-a]pyrazin-2-yl)-7-[3-(piperazin-1-yl)propyl]-2H-chromen-2-one] | 0.1 to 0.3 | **** (fold increase between >1.5 and ≤1.65) | 300 to 1000 |
| 159 to 163 | CN1CCCN(c2ccc3cc(-c4cc5ccccn5n4)c(=O)oc3c2)CC1 [Compound 193, 7-(4-methyl-1,4-diazepan-1-yl)-3-(pyrazolo[1,5-a]pyridin-2-yl)-2H-chromen-2-one] | 0.1 to 0.3 | ** (fold increase between >1.2 and ≤1.35) | 3000 to 10000 |
| 184 to 188 | Cc1cn2cc(-c3cc4ccc(CCN(CCO)CCO)cc4oc3=O)nc2c(C)n1 [Compound 875, 7-{2-[bis(2-hydroxyethyl)amino]ethyl}-3-(6,8-dimethylimidazo[1,2-a]pyrazin-2-yl)-2H-chromen-2-one] | < 0.1 | **** (fold increase between >1.5 and ≤1.65) | < 300 |
| 152 to 155 | CN1CCCN(c2ccc3cc(-c4cn5cc(F)ccc5n4)c(=O)oc3c2)CC1 [Compound 294, 3-(6-fluoroimidazo[1,2-a]pyridin-2-yl)-7-(4-methyl-1,4-diazepan-1-yl)-2H-chromen-2-one] | 0.1 to 0.3 | ** (fold increase between >1.2 and ≤1.35) | 1000 to 3000 |
| 242 to 255 | CCN1CCN(c2ccc3cc(-c4cn5cc(C)ncc5n4)c(=O)oc3c2)CC1 [Compound 622, 7-(4-ethylpiperazin-1-yl)-3-(6-methylimidazo[1,2-a]pyrazin-2-yl)-2H-chromen-2-one] | < 0.1 | **** (fold increase between >1.5 and ≤1.65) | < 300 |
| 203 to 206 | Cc1ccn2nc(-c3cc4ccc(N5CCCNCC5)cc4oc3=O)cc2c1 [Compound 309, 7-(1,4-diazepan-1-yl)-3-(5-methylpyrazolo[1,5-a]pyridin-2-yl)-2H-chromen-2-one] | 0.3 to 1 | ** (fold increase between >1.2 and ≤1.35) |  |
| 268 to 271 | CN1CCN(c2cc(F)c3cc(-c4cn5ccsc5n4)c(=O)oc3c2)CC1 [Compound 372, 5-fluoro-3-(imidazo[2,1-b][1,3]thiazol-6-yl)-7-(4-methylpiperazin-1-yl)-2H-chromen-2-one] | 0.1 to 0.3 | ** (fold increase between >1.2 and ≤1.35) |  |
| 185 to 188 | Cc1cn2cc(-c3cc4ccc(CCCN(C)C)cc4oc3=O)cc(F)c2n1 [Compound 909, 7-[3-(dimethylamino)propyl]-3-(8-fluoro-2-methylimidazo[1,2-a]pyridin-6-yl)-2H-chromen-2-one] | < 0.1 | ***** (fold increase >1.65) | < 300 |
| 188 to 191 | Cc1cn2cc(-c3cc4ccc(N5CCCNCC5)cc4oc3=O)nc2s1 [Compound 233, 7-(1,4-diazepan-1-yl)-3-(2-methylimidazo[2,1-b][1,3]thiazol-6-yl)-2H-chromen-2-one] | 0.1 to 0.3 | *** (fold increase between >1.35 and ≤1.5) |  |
